This is an account of results in US10973780B2 (priority 2019, dated 2021).

The conditions of series [1]: cited from earlier work.
The conditions of series [2]: cited from earlier work. This is another data set of the same source.
For series [3] the following is noted: cited from earlier work. The source holds these as a separate data set.
For series [4] the following is noted: cited from earlier work. The source holds these as a separate data set.
The conditions of series [5]: cited from earlier work. The source holds these as a separate data set.
The conditions of series [6]: rat, daily IV injections for 1 month; cited from earlier work.
The conditions of series [7]: cited from earlier work. The source holds these as a separate data set.
For series [8] the following is noted: elevated pHs around 5.5; cited from earlier work.
The nature of series [9]: pH of ketamine formulations and ketamine HCl solutions. Format: physicochemical.

Counter-ions that a name gives are not always drawn. Like-named read-outs stand apart in the source and are kept apart here. Bounds are passed on as bounds.

With `CNC1(c2ccccc2Cl)CCCCC1=O` (centres unmarked) [ketamine, 2-(2-chlorophenyl)-2-(methylamino)cyclohexanone], the “Side Effects” value in [1] (Intramuscular) is “High”; in series [1] (Intranasal), “High”; in series [1] (Intravenous), “Moderate”; in [1] (Oral) it was “Moderate”; in [1] (Subcutaneous), “Low”; in series [1] (Sublingual) it was “Moderate”. The “Bioavailability (grade)” value is listed as “High” in series [2] (Intramuscular); “Low” in [2] (Intranasal); “Highest” in [2] (Intravenous); “Very Low” in series [2] (Oral); “High” in series [2] (Subcutaneous); “Low” in series [2] (Sublingual). For the same compound, the Bioavailability was 25-50% in series [2] (Intranasal); 100% in series [2] (Intravenous); 11-20% in [2] (Oral); above 90% in [2] (Subcutaneous); 29% in [2] (Sublingual). The “Metabolite Exposure” value in series [3] (Intramuscular) is given as “Low”; in [3] (Intranasal), “High”; in [3] (Intravenous) it was “Low”; in series [3] (Subcutaneous), “Low”; in [3] (Sublingual), “High”. Moreover, the “increase in exposure to undesirable inflammatory metabolites” value in series [3] (oral dosing to reach equivalence to a short IV or IM treatment) is “up to 9 fold”; in series [3] (sublingual route), 3 fold.
Turning to `CC(O)COC[C@H]1O[C@@H]2O[C@H]3[C@H](O)[C@@H](O)[C@@H](O[C@H]4[C@H](O)[C@@H](O)[C@@H](O[C@H]5[C@H](O)[C@@H](O)[C@@H](O[C@H]6[C@H](O)[C@@H](O)[C@@H](O[C@H]7[C@H](O)[C@@H](O)[C@@H](O[C@H]8[C@H](O)[C@@H](O)[C@@H](O[C@H]1[C@H](O)[C@H]2O)O[C@@H]8COCC(C)O)O[C@@H]7COCC(C)O)O[C@@H]6COCC(C)O)O[C@@H]5COCC(C)O)O[C@@H]4COCC(C)O)O[C@@H]3COCC(C)O` (stereo partly drawn) [HP-β-CD, hydroxypropyl-beta-cyclodextrin], in series [4] (in vivo), the amount found safe is given as around 250 mg/kg/day.
Usually solubility stands for the dissolved amount per volume that the medium holds. For the compound “sulfobutyl-ether-beta-cyclodextrin [SBE-β-CD]”, in [5], the solubility was 600 mg/mL. The NOEL in [6] is recorded as 80 mg/kg. Also, the amount found safe in series [4] (6 months, humans older than 2 years) is around 250 mg/kg/day. The tolerability result in series [4] (infusion rates 292 to 4375 mg/min) is recorded as “well-tolerated with no clinically relevant side effects or changes in renal biomarkers”. For the same compound, the osmolality in [7] (20% solution, degree of substitution 6.5) was 785 mOsm/kg. For the same compound, in series [7] (according to the manufacturer), the “concentration iso-osmotic with blood and extracellular fluid” value is reported as 9.5-11.4%.
Regarding `CNC1(c2ccccc2Cl)CCCCC1=O` (centres unmarked) [ketamine HCl, ketamine hydrochloride], the precipitation result in [8] is “exhibit precipitation”. Moreover, in [9] (100 mg/mL (ketamine freebase equivalent) in water), the pH entry is reported as “around 4”. In addition, the “average pH” value was 3.74 in series [9] (measured in USP bottles of ketamine 100 mg/mL) and 3.93 in series [9] (solutions formed from powdered ketamine HCl).
